In one series the test system is aromatase. Also noted: method as in Vinggaard et al. 2000. As to conditions: human placental microsomes; ref Vinggaard et al. 2000; cited from earlier work.
The target of series [1] is T1, androgen receptor (AR) (Homo sapiens, UniProt P10275).
T1 construct: expressed in transfected cells; host or cells: yeast (YAS strain)
T1 sequence (P10275 1-920): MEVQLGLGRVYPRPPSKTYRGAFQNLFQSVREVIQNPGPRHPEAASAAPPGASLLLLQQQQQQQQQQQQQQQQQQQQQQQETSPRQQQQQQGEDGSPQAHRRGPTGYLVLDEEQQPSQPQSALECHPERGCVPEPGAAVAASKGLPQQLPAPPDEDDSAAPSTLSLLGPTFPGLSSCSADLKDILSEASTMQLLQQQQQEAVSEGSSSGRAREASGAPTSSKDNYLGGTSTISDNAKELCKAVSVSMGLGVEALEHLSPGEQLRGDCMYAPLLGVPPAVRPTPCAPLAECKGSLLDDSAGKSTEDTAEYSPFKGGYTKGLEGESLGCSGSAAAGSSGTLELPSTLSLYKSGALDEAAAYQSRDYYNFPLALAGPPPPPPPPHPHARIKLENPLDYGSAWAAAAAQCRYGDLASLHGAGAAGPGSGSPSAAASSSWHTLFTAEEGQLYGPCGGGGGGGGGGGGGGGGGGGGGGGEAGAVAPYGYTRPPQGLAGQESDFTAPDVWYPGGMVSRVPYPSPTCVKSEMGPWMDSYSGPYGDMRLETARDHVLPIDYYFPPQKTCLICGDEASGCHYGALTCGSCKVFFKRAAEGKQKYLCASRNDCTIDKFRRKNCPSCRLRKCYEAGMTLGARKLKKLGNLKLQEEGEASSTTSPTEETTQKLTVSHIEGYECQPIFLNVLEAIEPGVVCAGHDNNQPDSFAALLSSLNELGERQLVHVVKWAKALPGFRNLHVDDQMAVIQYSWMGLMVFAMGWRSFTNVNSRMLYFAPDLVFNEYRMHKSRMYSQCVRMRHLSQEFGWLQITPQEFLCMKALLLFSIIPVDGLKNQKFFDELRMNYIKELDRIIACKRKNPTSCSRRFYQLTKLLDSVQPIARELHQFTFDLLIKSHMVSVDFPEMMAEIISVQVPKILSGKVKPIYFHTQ
Kind of series: cell-based. Type of series: cell-based. As to conditions: for IC20: coincubated with DHT 6.4 nM, 53 hr at 28°C, Neg = no response was observed, read-out: Antiandrogen IC20 (μM) YAS. How it is done: Briefly, stimulation of the transfected AR causes a color change in the media, which is measured by absorbance at 540 nm (Labsystems Multiskan Multisoft, Vienna, VA, USA). Plates were also measured at 620 nm to measure cell growth (turbidity) to check for any cytotoxic effects that may have occurred. […] Incubation time was 53 hr at 28°C. […] Pesticide serial dilutions were tested in duplicate over two plates and were tested in two separate experiments.
(§1) Specifically, a variety of nonlinear regression models were fitted independently to the same data set, and the best-fitting model was selected using a statistical goodness-of-fit criterion. […] Data considered to be statistically significant at p < 0.05 were analyzed using the best-fit approach as described above. All statistical analysis was performed using SAS statistical software (SAS Institute Inc., Cary, NC, USA). From the best-fitting model, we derived inhibitory concentrations for antiandrogenicity and effect concentrations for cytotoxicity.

The target of series [2] is T2, androgen receptor (AR) (Homo sapiens, UniProt P10275, Q868H).
T2 construct: MDA-kb2 cells are human breast cancer cells stably transfected with a firefly luciferase reporter gene; endogenous in cells; host or cells: MDA-kb2 (human breast cancer cells)
T2 sequence (P10275 1-920 Q868H): T1 sequence (P10275 1-920) with Q868H
Kind of series: cell-based. As to conditions: for IC20: MDA-kb2, read-out: Antiandrogen IC20 (μM) MDA-kb2; for Antiandrogenic activity in the MDA-kb2 assay (in words): MDA-kb2 / 'our assay'; for ERR (environmental relevance ratio): total exposure score / IC20 (MDA-kb2), recalculated using experimental data. How it is done:
(§2) MDA-kb2 cells are human breast cancer cells stably transfected with a firefly luciferase reporter gene that is driven by an androgen-response element–containing promoter ([Wilson et al. 2002]). Details of the modified assay were published previously ([Ermler et al. 2010]). Briefly, cells were seeded at a concentration of 1 × 10^5 cells/mL in phenol red–free Leibowitz-15 medium (Invitrogen Ltd., Paisley, UK) containing 10% (charcoal-stripped) fetal calf serum (Invitrogen Ltd.) in white luminometer plates and allowed to attach for 24 hr. Cells were then exposed to eight serial dilutions of selected pesticides with or without DHT (0.25 nM). After 24 hr, luciferase activity was determined with SteadyGlo assay reagent (Promega UK Ltd., Southampton, Hampshire, UK) and measured in a plate reader (FLUOstar Optima, BMG Labtech GmbH, Offenburg, Germany). […] All concentrations were tested in duplicate over two plates, and each pesticide was measured at least twice in separate experiments. For comparative purposes, luminescence was normalized to DHT alone at coexposure concentration (maximum response, 100%) and solvent-only (ethanol) controls (minimum response, 0%). […] Pesticides were initially tested over a concentration range of 0.64 nM–50 μM (5× dilutions) as a range-finding exercise. Subsequently, the concentration ranges were modified to reflect the potency and toxicity of each individual compound. […] Sixty percent of the pesticides were repeat tested using the same product but with new stock solutions and by a different experimenter.
as §1, with “To analyze antiandrogenic action, raw luminescence readings were normalized on a plate-by-plate basis to the means of the positive DHT controls (n = 8) and the solvent controls (n = 8) ([Ermler et al. 2010]). […] Specifically,” for “Specifically,”

The test system of another series is MDA-kb2 cells. As to conditions: for Cytotoxic EC20 (μM) MDA-kb2: EC20 = concentration that produces a 20% effect. How it is done:
as §2
as §1, with “To analyze antiandrogenic action, raw luminescence readings were normalized on a plate-by-plate basis to the means of the positive DHT controls (n = 8) and the solvent controls (n = 8) ([Ermler et al. 2010]). […] Specifically,” for “Specifically,”

Series [3] has as its target T2, androgen receptor (AR). Type of series: cell-based. As to conditions: androgenic in the absence of DHT; Neg = no response was observed. How it is done: as §2
as §1, with “To analyze antiandrogenic action, raw luminescence readings were normalized on a plate-by-plate basis to the means of the positive DHT controls (n = 8) and the solvent controls (n = 8) ([Ermler et al. 2010]). […] Specifically,” for “Specifically,”

The subject of the next series is yeast. The series can be described thus: YAS, cytotoxicity (turbidity at 620 nm). Type of series: cell-based. As to conditions: for Cytotoxic EC20 (μM) YAS: EC20 = concentration that produces a 20% effect, yeast turbidity. How it is done: The methods for the YAS have been described previously ([Sohoni and Sumpter 1998]). Briefly, stimulation of the transfected AR causes a color change in the media, which is measured by absorbance at 540 nm (Labsystems Multiskan Multisoft, Vienna, VA, USA). Plates were also measured at 620 nm to measure cell growth (turbidity) to check for any cytotoxic effects that may have occurred. Pesticides were coincubated with DHT (6.4 nM). […] Incubation time was 53 hr at 28°C. […] Pesticide serial dilutions were tested in duplicate over two plates and were tested in two separate experiments.

Details of series [4]: method as in Lambright et al. 2000; Taxvig et al. 2007. As to conditions: ref Lambright et al. 2000; Taxvig et al. 2007; cited from earlier work.
For series [5] the following is noted: stable on food commodities; ref EFSA 2007, 2010a, 2010b; cited from earlier work.

Where a chain is given by its changes, count along the chain named.

Turning to `CC(C)(C)C(O)C(Oc1ccc(Cl)cc1)n1cncn1` (stereo not shown) [triadimenol], the Aromatase inhibition entry in the series on aromatase was “inhibited aromatase”.

Turning to `CC12CC1(C)C(=O)N(c1cc(Cl)cc(Cl)c1)C2=O` (stereo not shown) [Procymidone, reference compound], the IC20 at androgen receptor (AR) [1] worked out at 0.956 µM. Moreover, the IC50 on androgen receptor (AR) [2] (MDA-kb2, internal quality control for antiandrogenicity) came out at 0.53 µM. Further, on androgen receptor (AR) [2], the concentration for an effect of 20% (IC20) was determined as 0.163 µM, the “Antiandrogenic activity in the MDA-kb2 assay (in words)” value is recorded as “in vitro AR antagonists” and the “ERR (environmental relevance ratio)” value was 202.5. In the series with MDA-kb2 cells, the “Cytotoxicity in the MDA-kb2 assay (in words)” value is recorded as “nontoxic” and the “Cytotoxic EC20 (μM) MDA-kb2” value is above 50 µM. On androgen receptor (AR) [3], the “Androgen EC20 (μM) MDA-kb2” value is reported as “Neg”. Moreover, the “Cytotoxic EC20 (μM) YAS” value in the series on yeast was above 160 µM.

`CCCN(CCOc1c(Cl)cc(Cl)cc1Cl)C(=O)n1ccnc1` [Prochloraz]: the Aromatase inhibition entry in the series on aromatase is on record as “inhibited aromatase”. Further, in the series on MDA-kb2 cells, the “Cytotoxic EC20 (μM) MDA-kb2” value was 12.5 µM.

On to `C=CCOC(Cn1ccnc1)c1ccc(Cl)cc1Cl` (stereo not shown) [Imazalil], for which the Aromatase inhibition result in the series with aromatase is listed as “inhibited aromatase”. In addition, the “Cytotoxic EC20 (μM) MDA-kb2” value in the series with MDA-kb2 cells was 19.0 µM.

On to `CCOc1ccc2c(c1)C(C)=CC(C)(C)N2` [Ethoxyquin], for which, on androgen receptor (AR) [1], the IC20 came out at 11.1 µM. Moreover, at androgen receptor (AR) [2], the IC20 amounted to 10.7 µM, the “Antiandrogenic activity in the MDA-kb2 assay (in words)” value is on record as “in vitro AR antagonists” and the “ERR (environmental relevance ratio)” value is given as 0.75. The “Cytotoxic EC20 (μM) MDA-kb2” value in the series on MDA-kb2 cells is above 50 µM. In addition, the “Androgen EC20 (μM) MDA-kb2” value on androgen receptor (AR) [3] was “Neg”. Moreover, in the series with yeast, the “Cytotoxic EC20 (μM) YAS” value was above 200 µM.

Turning to `CC(C)(C)C(O)(CCc1ccc(Cl)cc1)Cn1cncn1` (stereo not shown) [Tebuconazole], in series [4], the “In vivo antiandrogen (in words)” value is “known in vivo antiandrogens”. Further, the “Cytotoxic EC20 (μM) MDA-kb2” value in the series with MDA-kb2 cells was found to be 38.9 µM.

For the compound `CCCC1COC(Cn2cncn2)(c2ccc(Cl)cc2Cl)O1` (stereo not shown) [propiconazole], the Aromatase inhibition entry with aromatase was “inhibited aromatase”.

`CC1(C(=O)Nc2ccc(O)c(Cl)c2Cl)CCCCC1` [Fenhexamid]: the “Parent compound remaining on food commodities” value (shortened to “Parent compound remaining”) in series [5] is reported as above 70%. Moreover, the “Cytotoxic EC20 (μM) MDA-kb2” value in the series with MDA-kb2 cells worked out at 21.6 µM.

As for `Cc1ccc(N(SC(F)(Cl)Cl)S(=O)(=O)N(C)C)cc1` [Tolylfluanid], on androgen receptor (AR) [1] (YAS), the “Antiandrogenic activity in the YAS (in words)” value was “antiandrogenic”. Besides, the IC20 on androgen receptor (AR) [1] turned out to be 0.234 µM. At androgen receptor (AR) [2], the “Antiandrogen IC20 (μM) MDA-kb2” value is on record as “Neg” and the “Antiandrogenic activity in the MDA-kb2 assay (in words)” value is “lacked activity”. Also, in the series on MDA-kb2 cells, the “Cytotoxicity in the MDA-kb2 assay (in words)” value is “cytotoxic” and the “Cytotoxic EC20 (μM) MDA-kb2” value worked out at 8.09 µM. For the same compound, the “Androgen EC20 (μM) MDA-kb2” value on androgen receptor (AR) [3] is recorded as “Neg”. In addition, in the series on yeast, the “Cytotoxic EC20 (μM) YAS” value stood at 1.14 µM. In addition, in the series on yeast (YAS), the “Cytotoxicity in the YAS assay (in words)” value is on record as “cytotoxic”.

For the compound `CC(C)(C)C(=O)C(Oc1ccc(Cl)cc1)n1cncn1` (stereo not shown) [triadimefon], in the series with aromatase, the Aromatase inhibition entry was “inhibited aromatase”.

With `CON(C)C(=O)Nc1ccc(Cl)c(Cl)c1` [Linuron], in series [4], the “In vivo antiandrogen (in words)” value is on record as “known in vivo antiandrogens”. The “Cytotoxic EC20 (μM) MDA-kb2” value with MDA-kb2 cells was above 50 µM.

As to `N#Cc1c[nH]cc1-c1cccc2c1OC(F)(F)O2` [Fludioxonil], the “Parent compound remaining” value in series [5] was above 70%. The “Cytotoxic EC20 (μM) MDA-kb2” value with MDA-kb2 cells turned out to be 28.5 µM. For the same compound, the “Cytotoxic EC20 (μM) YAS” value in the series with yeast was above 160 µM.

In the case of `COc1ccc(C(=CC(=O)N2CCOCC2)c2ccc(Cl)cc2)cc1OC` [Dimethomorph], the IC20 on androgen receptor (AR) [1] came to 38.5 µM. The “Parent compound remaining” value in series [5] is given as above 70%. Besides, on androgen receptor (AR) [2], the IC20 worked out at 0.263 µM, the “Antiandrogenic activity in the MDA-kb2 assay (in words)” value is given as “antiandrogenic” and the “ERR (environmental relevance ratio)” value is recorded as 45.6. Besides, the “Cytotoxic EC20 (μM) MDA-kb2” value in the series on MDA-kb2 cells is above 25 µM. The “Androgen EC20 (μM) MDA-kb2” value at androgen receptor (AR) [3] is given as “Neg”. Besides, in the series with yeast, the “Cytotoxic EC20 (μM) YAS” value was above 50 µM.

(Values after publication PMC3114813 (Environmental Health Perspectives, 2011).)
